From US5688938A, “Calcium receptor-active molecules” (priority 1995, dated 1997)

Experiments:
[1] = hypocalcemic response in thyroidectomized rats; type: in vivo, rat; details: 3 to 100 mg/kg p.o.
Source text: In subsequent studies, rats received a thyroidectomy (parathyroid glands intact). This surgical procedure effectively removed the C-cells secreting calcitonin and therefore enabled the relative contributions of PTH and calcitonin to the hypocalcemic effect of this compound to be determined. […] The only difference was that the rate of onset of the hypocalcemic response was somewhat delayed in thyroidectomized animals. […] Stimulatory effects of this compound on calcitonin secretion increases the rate of onset, but not the extent, of hypocalcemia.

[2] = serum ionized Ca^2+ in parathyroidectomized rats; type: in vivo, rat; details: oral
Source text: To determine the primary target tissue upon which NPS R-467 acts to cause a hypocalcemic response, the parathyroid glands in rats were surgically removed. Animals receiving a total parathyroidectomy become hypocalcemic and are largely dependent upon dietary calcium to maintain serum Ca^2+ homeostasis.

[3] = target: T1, parathyroid cell calcium receptor (Homo sapiens, UniProt P41180); assay: [Ca^2+]i (fura-2) in human parathyroid cells; type: cell-based
T1 construct: Dissociated parathyroid cells were prepared from a parathyroid adenoma obtained by surgery from a patient with primary hyperparathyroidism; endogenous in cells; host or cells: primary dissociated human parathyroid cells (adenoma or hyperplastic tissue from surgery)
T1 sequence (P41180 20-1078): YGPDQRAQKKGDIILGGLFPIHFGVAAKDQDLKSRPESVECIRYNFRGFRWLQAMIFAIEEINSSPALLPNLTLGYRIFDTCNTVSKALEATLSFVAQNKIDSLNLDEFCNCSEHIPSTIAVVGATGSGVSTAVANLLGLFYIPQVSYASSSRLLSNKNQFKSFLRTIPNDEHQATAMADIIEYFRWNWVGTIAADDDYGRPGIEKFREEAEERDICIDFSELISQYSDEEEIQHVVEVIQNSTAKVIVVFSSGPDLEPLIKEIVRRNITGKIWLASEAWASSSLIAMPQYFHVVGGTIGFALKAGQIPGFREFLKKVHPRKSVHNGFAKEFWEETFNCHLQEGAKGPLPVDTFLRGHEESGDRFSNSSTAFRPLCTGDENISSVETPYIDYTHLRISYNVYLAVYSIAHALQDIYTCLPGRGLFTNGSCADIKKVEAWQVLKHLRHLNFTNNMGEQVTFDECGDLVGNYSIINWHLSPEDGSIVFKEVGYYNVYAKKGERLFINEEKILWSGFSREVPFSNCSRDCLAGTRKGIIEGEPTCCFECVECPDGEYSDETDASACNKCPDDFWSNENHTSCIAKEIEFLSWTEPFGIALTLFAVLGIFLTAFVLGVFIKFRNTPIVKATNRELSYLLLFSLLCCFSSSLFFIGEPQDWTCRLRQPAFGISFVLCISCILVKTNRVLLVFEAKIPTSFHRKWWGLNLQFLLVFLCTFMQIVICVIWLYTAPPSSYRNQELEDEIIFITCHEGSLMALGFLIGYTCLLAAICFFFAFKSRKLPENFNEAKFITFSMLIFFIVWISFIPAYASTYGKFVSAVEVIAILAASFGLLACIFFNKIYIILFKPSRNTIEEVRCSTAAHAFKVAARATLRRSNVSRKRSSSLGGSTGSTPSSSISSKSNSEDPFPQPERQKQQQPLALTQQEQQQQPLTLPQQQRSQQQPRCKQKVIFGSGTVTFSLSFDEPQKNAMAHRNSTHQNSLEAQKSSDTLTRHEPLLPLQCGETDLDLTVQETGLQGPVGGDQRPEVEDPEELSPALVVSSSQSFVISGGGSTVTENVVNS
Description: This section describes procedures used to obtain and treat parathyroid cells from calves and humans. […] Human parathyroid glands, were obtained from patients undergoing surgical removal of parathyroid tissue for primary or uremic hyperparathyroidism (uremic HPT), and were treated similarly to bovine tissue.
Dissociated parathyroid cells were prepared from a parathyroid adenoma obtained by surgery from a patient with primary hyperparathyroidism.

COc1cccc([C@@H](C)NCCCc2ccccc2Cl)c1 [NPS R-568, (R)-(+)-N-[3-(2-chlorophenyl)propyl]-α-methyl-3-methoxybenzylamine]
hypocalcemic response in thyroidectomized animals [1]: hypocalcemic response equal in magnitude to that produced in sham-operated animals | hypocalcemic response in parathyroidectomized rats [2]: fails to elicit a hypocalcemic response

NC[C@@H]1O[C@H](O[C@H]2[C@@H](O)[C@H](O[C@@H]3[C@@H](O)[C@H](N)C[C@H](N)[C@H]3O[C@H]3O[C@H](CN)[C@@H](O)[C@H](O)[C@H]3N)O[C@@H]2CO)[C@H](N)[C@@H](O)[C@@H]1O [Neomycin]
increase in [Ca^2+]i ([3]; 20 μM): large increase in [Ca^2+ ]i | increases in [Ca^2+]i ([3]; human adenoma cells): not only a transient, but additionally a steady-state increase in [Ca^2+ ]i | EC50 ([3]; human parathyroid cells): 20 µM
